pEC50, pIC50: −log10 of the molar value. Active and inactive are the calls of the source.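 Rule for the calls: active = compounds giving half or more protection of infected cells from virus-caused growth loss, again on retest; inactive = the rest.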
Test system: CEM cells HIV-1 protection, formazan growth assay
Experiment: NCI AIDS Antiviral Assay
Conditions: for pIC50: measured here: growth of uninfected CEM cells
Summary of the method: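 Category rules: moderately active means at least 50% protection on retest, and confirmed active means 100% protection reproducibly. The underlying data came from a formazan growth assay in HIV-1-infected CEM cells.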

SMILES	pEC50	pIC50	outcome
CCCCOC1CC2(c3ccc(OC)cc3)C(=O)c3ccccc3N2O1 (stereo unspecified)	< 3.95	4.62	
CC(C)c1ccc(C=Nc2ccc(SSc3ccc(N=Cc4ccc(C(C)C)cc4)cc3)cc2)cc1	< 3.70	4.53	
O=C1OCC(Cl)O1 (stereo unspecified)	< 3.70	< 3.70	
COc1ccc(C2=C(N)c3ncccc3C2=O)cc1	< 3.70	3.88	
CN1Cc2c(ccc3c2OCO3)C2C(O)Cc3cc4c(cc3C21)OCO4 (stereo unspecified)	< 6.04	6.63	
COc1cccc(C2SCC(=O)N2c2ccc(-c3ccc(-n4c(-c5ccccc5)nc5ccccc5c4=O)cc3)cc2)c1OC (stereo unspecified)	< 3.70	4.20	
CC(=O)Nc1ccc(/C=C2\SC(=S)N(C=C(C#N)C#N)C2=O)cc1	< 3.70	4.31	
Cc1ccc2c(c1)[nH]c(=S)n2C=C(C#N)C#N	< 3.70	< 3.70	
CS(=O)(=O)SCc1ccc([N+](=O)[O-])cc1	< 3.84	4.69	
CC(=O)N1C(=O)CC(c2ccccc2)Sc2ccccc21 (stereo unspecified)	< 3.82	< 3.82	
Oc1cc(O)c2c(c1)OC(c1ccc(O)c(O)c1)C(OC1(c3cc(O)c(O)c(O)c3)Oc3cc(O)cc(O)c3C(O)C1O)C2 (stereo unspecified)	< 3.70	4.94	
COc1ccc(CCNC=O)cc1OC			inactive
COc1ccc2c(=O)c3ccoc3[nH]c2c1	< 4.00	< 4.00	
O=C1CSC(=Nc2ccccc2)N1c1ccc(-n2c(-c3ccc(N=Cc4ccc(Cl)cc4)cc3)nc3ccccc3c2=O)cc1	< 4.25	< 4.25	
C=C1C(OC(=O)C(OC(C)=O)C(c2ccccc2)N(C)C)C[C@H](OC(C)=O)[C@]2(C)C1C(OC(C)=O)[C@@H]1CC(OC(C)=O)C(C)=C([C@@H](OC(C)=O)C2OC(C)=O)C1(C)C (stereo partly specified)			inactive
O=C(/C=C/c1c(O)ccc2ccccc12)c1cccc2ccccc12	< 3.79	3.95	
CC(=O)OC1SCC2OC(=O)OC21 (stereo unspecified)	< 2.91	< 2.91	
Cc1[nH]c2c(ccc3c2ccc2c(=O)c(Cl)c(C)[nH]c23)c(=O)c1Cl	< 3.70	< 3.70	
CCCCCCC[CH2][Sn]1([CH2]CCCCCCC)[O]C(=O)c2cccnc2[O]1	< 5.13	< 5.13	
CC(=O)O[C@H]1CC[C@]2(C)C3CC[C@]4(C)C([C@H](C)CCCC(C)C)CCC4[C@]3(C#N)n3c(=O)n(-c4ccccc4)c(=O)n3[C@]2(C#N)C1 (stereo partly specified)	< 3.70	< 3.70	
CCC(=O)C1=C(OC(C)=O)C2Cc3c(n(C)c4ccccc34)C(C1)N2C (stereo unspecified)			inactive
O=C1NC(=S)N/C1=C\c1ccco1	< 3.70	3.98	

SMILES	pEC50	pIC50	outcome
N=C(OC1CCCCC1)N1CCCC1	< 3.70	< 3.70	
CN(C)CCONC(=O)C12CC3CC(CC(C3)C1)C2			inactive
S=C(NCCc1ccccn1)c1nc[nH]c1C(=S)NCCc1ccccn1	< 3.70	4.72	
Cc1c(C#N)c2ccccc2c2nc3ccccc3n12	< 3.70	3.89	
O=C1/C(=C/c2ccccc2)NC(=S)N1CN1CCOCC1	< 3.70	4.14	
C(=Nc1ccccc1C1SCCCS1)c1ccccc1	< 3.70	< 3.70	
O=C1c2ccccc2C(=O)N1C/C=N/NS(=O)(=O)c1ccc(Cl)cc1	< 4.02	< 4.02	
O=C1NC(O)c2c(F)cccc2O1 (stereo unspecified)	< 3.70	3.88	
COC(=O)[C@@H]1[C@H]2C[C@@H]3c4[nH]c5ccccc5c4CCN3C[C@@H]2CC[C@@H]1O			inactive
COC(=O)[C@]1(NC(=O)c2ccccc2)C[C@H]1C=O	< 3.70	3.77	
CC(=O)Nc1ccc(N)c2cc(S(=O)(=O)O)ccc12	< 3.70	< 3.70	
O=[N+]([O-])C(=C(N1CCCCC1)N1CCCCC1)/C(Cl)=C(\Cl)Br	< 3.70	5.89	
CC(=O)O/N=C(Cl)/C(Cl)=N/OC(C)=O			inactive
C[N+](C)(C)CCCC#CC[N+]1(C)CCc2ccccc2C1 (stereo unspecified)			inactive
O=C(N/N=C\c1ccccc1)c1ccccc1Nc1ccccc1C(=O)N/N=C/c1ccccc1	4.57	< 3.70	
CCOC(=O)/C(=C/c1ccccc1Br)P(=O)(OCC)OCC	< 4.04	5.24	
COc1cc(C)cc(C(=O)OCc2ccccc2)c1C1=C(Cl)C(=O)C(Cl)=CC1=O	< 4.28	5.07	
C1CSC2=C(S1)SC1=C(S2)SC(=C2SC3=C(SC4=C(SCCS4)S3)S2)S1	< 3.70	< 3.70	
CN(C)c1ccc(Cc2cc3c(O)ccc(O)c3cc(Cc3ccc(N(C)C)cc3)c2=O)cc1	< 3.70	5.50	
C=C(C(=C)P(=S)(c1ccccc1)c1ccccc1)P(=S)(c1ccccc1)c1ccccc1	< 4.57	< 4.57	
Cc1ccc2cc([N+](=O)[O-])c3ccc(C)nc3c2n1	< 3.70	5.50	
COC(=O)N/N=C/c1oc(-c2ccccc2)c(-c2ccccc2)c1[N+](=O)[O-]	< 4.21	< 4.21	
